# Source: patent publication US11389449B2, “Treatment of metabolic syndrome with an sGC stimulator” (Cyclerion Therapeutics, Inc., priority 2017, dated 2022)
# Experiments:
# ZSF1 obese rats = assay: Fasting serum insulin in ZSF1 rats (Rat Insulin ELISA); type: in vivo
# Excerpt: Blood and 24-hour urine samples were obtained from all animals at day 0 (15 weeks of age; prior to the initiation of enalapril treatment). Animals in Groups 3, 7, 8 and 9 were placed on drinking water containing enalapril and kept on Purina 5008 rodent chow (C13000). Animals in Group 1, 2, 4, 5 and 6 were kept on Purina 5008 rodent chow and drinking water. Ten days after the initiation of enalapril treatment, blood and 24-hour urine samples were collected from all animals. After day 10 blood and urine collections, animals in Groups 4, 5 and 6 received Compound I at 1, 3 and 10 mg/kg/day, respectively for 11 weeks. In addition to enalapril treatment, animals in Groups 7, 8 and 9 received Compound I at 1, 3 and 10 mg/kg/day, respectively for an additional 11 weeks.
# 10 weeks after the initiation of Compound I treatment, animals (27 weeks of age) were fasted for 18 hours. Serum samples were collected for the measurement of fasting insulin levels. Serum insulin levels were determined using the Rat Insulin ELISA kit (Cat #ELR-Insulin, RayBiotech, Inc.)
# The data are expressed as mean±SEM. […] One-tailed tests were used for comparison of variables. Statistical significance is indicated by P values less than 0.05.
# [1] = system: patients with stable type 2 diabetes and hypertension; assay: Open-label Phase 2a trial of escalating doses (NCT02906579), metabolic assessments and tolerability; type: in vivo, human; details: for Change Serum Insulin, Mean / Change Serum Insulin, Median: fasting
# Excerpt: The primary objectives of this clinical study (ClinicalTrials.gov Identifier: NCT02906579) were to assess the acute effects of escalating doses of Compound I on endothelial function (using EndoPAT™—Itamar Medical; Caesarea, Israel- to measure fingertip small vessel pulse volume), blood pressure, heart rate/pulse, safety and tolerability in patients with Type 2 diabetes and a history of hypertension. Patients in this trial were on stable medications for glucose control (blood glucose lowering medication) and hypertension (including an ARB or an ACEi). Secondary measurements included assessment of fasting glucose levels, fasting insulin levels, hemoglobin A1C (HbA1C) levels, serum cholesterol levels, serum triglyceride levels, BMI and body weight.
# Allocation: non-randomized; Intervention Model: single group assignment; Masking: non (open-label), Primary purpose: treatment. Single cohort of 11 patients confined to unit. Single clinical site.
# Clinic Period: The Clinic Period began at Check-in on Day-1 and ended at Discharge on Day 19. Patients who met eligibility criteria based on Screening Visit assessments were admitted to the Study Center on Day-1 for procedures to confirm eligibility and were confined to the Study Center until Discharge on Day 19. Patients received a standard diet for diabetics. On Days 1 to 18, following an overnight fast of ≥8 hours, eligible patients received once-daily study drug. Safety (adverse event [AE] collection, vital signs, fasting glucose, serum insulin, electro cardiograms [ECGs]) and pharmacokinetic (PK) assessments, including blood collections, were performed at pre-specified times daily (see Schedule of Events). Pharmacodynamic assessments was performed on a 3-day cycle that repeated for each of the 6 dosing cycles (see FIG. 29 and Schedule of Events): the first day included supine and standing cuff BP and pulse measurements; the second day include ambulatory BP monitoring (ABPM), and the third day will include EndoPAT assessments of endothelial function. In addition, blood samples were collected for optional determination of exploratory biomarkers, including metabolic markers associated with metabolic syndrome (see Schedule of Events). On Day 19, after assessments were completed, patients were discharged from the Study Center at the Investigator's discretion. Patients were rescreened should they discontinue in the Screening Period due to visit window deviations or other administrative reasons. In addition, laboratory values, ECG values, or BPs that were outside the range specified in the protocol were repeated to confirm eligibility during the screening period at the Investigator's discretion after consultation with the Medical Monitor.
# Escalating single doses (in 3-day cycles) of 10, 20, 30, 40 or 50 mg of Compound I. Compound I has previously been described in WO2014144100. Metabolic parameters, including fasting serum glucose levels, fasting serum insulin levels, hemoglobin A1C (HhA1C) levels, serum lipid levels and body weight, were determined on the second day of each 3-day cycle.
# Fasting glucose (mg/dL) was measured in serum both enzymatically. Insulin (pmol/L) was measured by ECLIA. Cholesterol (mg/dL) was measured enzymatically. Triglycerides (mg/dL) were measured enzymatically. HbA1c (%) was measured using Roche Tina Quant.
# Compound I was administered as multiples of a 5-mg oral tablet dosage form. Placebo was administered as multiples of a 5 mg tablet. Compound I was formulated as a spray dried dispersion formulation as described in WO2017095697.
# Patients received orally administered study drug at approximately the same time (±15 minutes) every day in the morning (8 to 10 AM), after an overnight fast of at least 8 hours. Patients took multiple tablets together as needed to complete the total dose. […]
# [2] = after escalation 10 to 50 mg over 15 days
smiles,measurement,setting,value
OC(CNc1nc(-c2cc(-c3ccon3)n(Cc3ccccc3F)n2)ncc1F)(C(F)(F)F)C(F)(F)F [Compound I],Fasting Insulin,"ZSF1 obese rats; week 10, Compound I 1 mpk",15.7 ± 3.5 μIU/mL
same,Fasting Insulin,"ZSF1 obese rats; week 10, Compound I 3 mpk",15.6 ± 2.7 μIU/mL
same,Fasting Insulin,"ZSF1 obese rats; week 10, Compound I 10 mpk",11.7 ± 1.6 μIU/mL
same,"Change Serum Insulin, Mean",[1]; 10 mg once daily cycle,0.2 µIU/mL
same,"Change Serum Insulin, Median",[1]; 10 mg once daily cycle,-0.5 µIU/mL
same,"Change Serum Insulin, Mean",[1]; 20 mg once daily cycle,-0.4 µIU/mL
same,"Change Serum Insulin, Median",[1]; 20 mg once daily cycle,0.1 µIU/mL
same,"Change Serum Insulin, Mean",[1]; 30 mg once daily cycle,-2.61 µIU/mL
same,"Change Serum Insulin, Median",[1]; 30 mg once daily cycle,-2 µIU/mL
same,"Change Serum Insulin, Mean",[1]; 40 mg once daily cycle,-2.49 µIU/mL
same,"Change Serum Insulin, Median",[1]; 40 mg once daily cycle,-1.9 µIU/mL
same,"Change Serum Insulin, Mean",[1]; 50 mg once daily cycle,-2.7 µIU/mL
same,"Change Serum Insulin, Median",[1]; 50 mg once daily cycle,-0.7 µIU/mL
same,reduction in mean fasting glucose level between placebo cycle (day 2) and end of treatment,"[1]; after escalation 10, 20, 30, 40, 50 mg single oral daily dose",20%
same,reduction in mean cholesterol level between baseline (day-1) and end of treatment,[1]; [2],23%
same,reduction in serum TGs between day-1 (baseline) and day 19,[1]; [2],about 12%
same,mean reduction of body weight,[1]; by end of treatment day 19,about 3.5 kg
same,mean serum TG level,[1]; day 19,122 mg/dL
same,mean serum cholesterol level,[1]; day 19,142 mg/dL
same,Mean fasting glucose level,[1]; day 19 (end of treatment) after escalation 10 to 50 mg once daily,114 mg/dL
same,HbA1C mean reduction from baseline,"[1]; day 19, actual HbA1C reading",0.40%
same,mean body weight relative to baseline (day-1),"[1]; each dosage 10 to 50 mg, cumulative over dose escalation",decreased for all dosages
same,change between mean serum cholesterol value on day 19 (end of treatment) and day 32,[1]; follow-up after end of dosing,+43.3 mg/dL
same,tolerability,[1]; multiple dose escalation 10 to 50 mg once daily,well tolerated
